{
  "source": "patent US20010011146A1",
  "about": "“NEUROPROTECTIVE COMPOUNDS AND USES THEREOF” (priority 1997, published 2001)",
  "key": {"[1]": {"assay": "Body temperature recording during cerebral reperfusion (4-VO ischemic animals)", "type": "in vivo, male Wister rats", "settings": "for Temperature recording during cerebral reperfusion: mean ± s.e.m., in °C (unit assumed)", "description": "(§1) Four-vessel occlusion (“4-VO”) ischemia. All procedures regarding animals were in compliance with AALAC guidelines set forth in the PHS animal “Guide in the Care and Use of Laboratory Animals”. Animals (male Wister rats, 200-250 gr, Hill Top, Scottsdale) were anesthetized with a mixture of halothane (1%), oxygen, and nitrogen, and surgically prepared for 4-VO according to the method described by Pulsinell, W. A., et al., “Regional Cerebral Blood Flow and Glucose Metabolism Following Transient Forebrain Ischemia,” Ann. Neurol., 11:499-502 (1982), which is hereby incorporated by reference. Surgical procedures included placing reversible clasps around the common carotid arteries and placing a suture around the neck muscles to control collateral blood flow to the brain. Food was withheld overnight, but water was freely available. On the following day, 10 minutes of 4-VO ischemia was induced by tightening the clasps around the common carotid arteries and the suture. In order to minimize variability, the following criteria was set: loss of righting reflex and bilateral pupil dilation during the entire ischemic period, and 20±5 minutes of postischemic coma after 10 minutes of ischemia. Only animals that meet these criteria were included in the study. The body temperature of all animals was kept at 37.5±0.5° C. by a thermocouple-regulated heating lamp during ischemia and reperfusion until the animals regained consciousness and established thermo-homeostasis.\n(§2) NAMDA administration. Animals subject to 10 minutes of ischemia randomly were divided into 4 groups. Animals received one of the following triple intraperitoneal injections: i) saline at 0, 0.5, and 2 hours, ii) NAMDA (10 mg/kg) at 0, 0.5, and 2 hours, iii) NAMDA at 1, 1.5, and 3 hours, and iv) NAMDA at 2, 2.5, and 4 hours of cerebral reperfusion. To examine whether NAMDA caused hypothermia, the animals' body temperatures were recorded for up to the first 4 hours of cerebral reperfusion. Sham-operated animals that underwent surgery and carotid manipulation were used as non-ischemic controls.\nThe animals' body temperature was kept at 37.5±0.5° C. during ischemia and first half hour of cerebral reperfusion when animals were typically stayed in postischemic coma. Temperatures were recorded soon after animals regained consciousness and recorded for up to 4 hours of cerebral reperfusion (Table 1)."}, "[2]": {"test_system": "BV-2 cells", "assay": "Cell number count by tryphan exclusion in BV-2 cells", "type": "cell-based, murine", "settings": "with or without LPS; end of 6 hours treatment; up to 5 mM"}, "[3]": {"test_system": "NADPH-diaphorase activity in CA1 hippocampus", "assay": "NADPH-diaphorase histochemistry in postischemic CA1 hippocampus", "type": "in vivo, male Wister rats", "settings": "triple i.p. injection 10 mg/kg during reperfusion", "procedure": "as §2\nTissue preparation. Animals were anesthetized with sodium pentobarbital (120 mg/kg) and perfused transcardially with saline containing 0.5% sodium nitrite and 10 U/ml heparin sulfate followed by 4% cold formaldehyde in 0.1 M sodium phosphate buffer (PB, pH 7.2). The brains were further postfixed for 2 hours and stored in a 30% sucrose solution overnight. Fixed brains were sectioned at 30 μm on a sliding microtome. For each animal, the dorsal hippocampus between bregma −2.5 mm and −4.0 mm was sampled. Some sections were […] on slides and stained with cresyl violet to measure neuronal density. Others were used for free floating NADPH-diaphorase histochemistry.\nNADPH-Diaphorase histochemistry. […]"}, "[4]": {"test_system": "CA1 hippocampal neurons", "assay": "Four-vessel occlusion (4-VO) ischemia, CA1 neuronal density measurement", "type": "in vivo, male Wister rats", "description": "as §1, §2\nTissue preparation. […] Some sections were […] on slides and stained with cresyl violet to measure neuronal density. […]\nCell density measurement. […] Neurons were counted in the frame if part or all of the nucleus was within the frame and not in contact with the left or bottom border of the frame. […] The number of neurons counted were divided by the total volume sampled to generate the density of neurons in CA1. Mean neuron density was calculated for the left and right hippocampus (side) and for the anterior and posterior regions for each animal. […]"}, "[5]": {"test_system": "NADPH-diaphorase activity in BV-2 cells", "assay": "NADPH-diaphorase histochemical staining in BV-2 cells", "type": "cell-based, murine", "settings": "5 mM", "procedure": "NADPH-Diaphorase histochemistry. The histochemical staining was performed according to the method described by Vincent, et al., “Histochemical Mapping of Nitric Oxide Synthase in the Rat Brain,” Neuroscience, 46:755-784 (1992), which is hereby incorporated by reference). Sections containing dorsal hippocampus are washed twice in 0.1 M phosphate buffer (“PB”) and then processed for NADPH-diaphorase histochemistry. To establish a temporal profile of NADPH-diaphorase staining during postischemic period, sections were obtained from animals that were perfuse fixed at 12 hours, 24 hours, 48 hours, 72 hours, and 7 days after ischemia. The sections were then incubated for 1 hour at 37° C. with a solution containing 1 mg/ml of NADPH, 0.25 mg/ml of nitro blue tetrazolium (“NBT”), and 0.3% Triton X-100 in 0.1 M PB. The reaction was terminated by the addition of cold 0.1M PB. […]\n(§3) After the treatment, 200 μl aliquots of cell supernatant from each well were mixed with 100 μl of Griess reagent (1 % sulphanilamide, 0.1% naphthylethylenediamine dihydrochloride, 2.5% H3PO4) in 96 well microtiter plates. The mixtures were incubated for 10 minutes to form a chromophore and the absorbance was read at 540 nm using a plate reader. The amount of nitrite accumulation from media was determined against a standard curve generated by a known concentration of NaNO3. […]"}, "[6]": {"test_system": "BV-2 microglia cells", "assay": "Nitrite measurement (Griess reaction) in BV-2 microglia cells", "type": "cell-based, murine", "settings": "6 hours, 0.05-5 mM", "procedure": "Nitrite measurement on microylial cell. To measure nitrite level, a NO oxidative metabolite, murine BV-2 cells, were used. […] The cells were grown and maintained in Dulbeccos Modified Eagle medium (“DMEM”, Gibco, Gaithersburg, Md.) supplemented with 10% fetal calf serum and penicillin/streptomycine at 37° C. in a humidified incubator under 5% CO2. BV-2 microglia cells were cultured and grown in 24 well culture plates and treated for 6 hours with 0. 0.05, 0.5, 2, or 5 mM or NAMDA either in the presence or absence of lipopolysaccharide (LPS, 0.2 μg/ml).\nas §3, with “[…]. After removal of the supernatant for the nitrite assay, cells were immediately washed with 0.1M PB, fixed with 4% formaldehyde for 30 minutes, and washed with 0.1M PB for 5 minutes. NADPH-diaphorase histochemical staining was performed as described above.” for “NaNO3.”"}, "[7]": {"settings": "background statement; cited from earlier work"}, "[8]": {"test_system": "CA1 hippocampal neurons", "settings": "Cho et al. 1997, cited from earlier work"}},
  "note": "“Also recorded” adds a separate entry of the source. Where two headings read alike, the source gives them in different places.",
  "data": [
    {"compound": "COc1cc(CCNC(C)=O)ccc1O", "note": "[NAMDA, N-acetyl-3-O-methyldopamine]", "values": [
      {"measurement": "Effect on body temperature versus saline-treated ischemic group", "setting": "[1]; 10 mg/kg triple i.p., any time point up to 4 hours of reperfusion, ANOVA, Newman-Keuls", "value": "no differences in body temperatures"},
      {"measurement": "Temperature recording during cerebral reperfusion", "setting": "[1]; NC-111 (0, 0.5, 2 h), n = 9, postischemic time 1 hour", "value": "37.6 ± 0.2"},
      {"measurement": "Temperature recording during cerebral reperfusion", "setting": "[1]; NC-111 (0, 0.5, 2 h), n = 9, postischemic time 1.5 hour", "value": "37.3 ± 0.1"},
      {"measurement": "Temperature recording during cerebral reperfusion", "setting": "[1]; NC-111 (0, 0.5, 2 h), n = 9, postischemic time 2 hour", "value": "37.3 ± 0.1"},
      {"measurement": "Temperature recording during cerebral reperfusion", "setting": "[1]; NC-111 (0, 0.5, 2 h), n = 9, postischemic time 3 hour", "value": "37.5 ± 0.2"},
      {"measurement": "Temperature recording during cerebral reperfusion", "setting": "[1]; NC-111 (0, 0.5, 2 h), n = 9, postischemic time 4 hour", "value": "37.2 ± 0.1"},
      {"measurement": "Temperature recording during cerebral reperfusion", "setting": "[1]; NC-111 (1 h) group (injections at 1, 1.5, 3 h), n = 7, postischemic time 0.5 hour", "value": "37.9 ± 0.2"},
      {"measurement": "Temperature recording during cerebral reperfusion", "setting": "[1]; NC-111 (1 h) group, n = 7, postischemic time 1 hour", "value": "36.9 ± 0.1"},
      {"measurement": "Temperature recording during cerebral reperfusion", "setting": "[1]; NC-111 (1 h) group, n = 7, postischemic time 1.5 hour", "value": "37.0 ± 0.1"},
      {"measurement": "Temperature recording during cerebral reperfusion", "setting": "[1]; NC-111 (1 h) group, n = 7, postischemic time 2 hour", "value": "37.4 ± 0.1"},
      {"measurement": "Temperature recording during cerebral reperfusion", "setting": "[1]; NC-111 (1 h) group, n = 7, postischemic time 3 hour", "value": "37.5 ± 0.2"},
      {"measurement": "Temperature recording during cerebral reperfusion", "setting": "[1]; NC-111 (1 h) group, n = 7, postischemic time 4 hour", "value": "37.5 ± 0.3"},
      {"measurement": "Temperature recording during cerebral reperfusion", "setting": "[1]; NC-111 (2 hr) group (injections at 2, 2.5, 4 h), n = 6, postischemic time 0.5 hour", "value": "38.3 ± 0.2"},
      {"measurement": "Temperature recording during cerebral reperfusion", "setting": "[1]; NC-111 (2 hr) group, n = 6, postischemic time 1 hour", "value": "36.8 ± 0.3"},
      {"measurement": "Temperature recording during cerebral reperfusion", "setting": "[1]; NC-111 (2 hr) group, n = 6, postischemic time 1.5 hour", "value": "37.2 ± 0.4"},
      {"measurement": "Temperature recording during cerebral reperfusion", "setting": "[1]; NC-111 (2 hr) group, n = 6, postischemic time 2 hour", "value": "37.4 ± 0.2"},
      {"measurement": "Temperature recording during cerebral reperfusion", "setting": "[1]; NC-111 (2 hr) group, n = 6, postischemic time 3 hour", "value": "37.3 ± 0.2"},
      {"measurement": "Temperature recording during cerebral reperfusion", "setting": "[1]; NC-111 (2 hr) group, n = 6, postischemic time 4 hour", "value": "37.9 ± 0.3"},
      {"measurement": "Temperature recording during cerebral reperfusion", "setting": "[1]; NC-111 (injections at 0, 0.5, 2 h of reperfusion), n = 9, postischemic time 0.5 hour", "value": "37.7 ± 0.2"},
      {"measurement": "Total number of cells (cell viability)", "setting": "[2]", "value": "did not affect the total number of cells"},
      {"measurement": "Ischemia-induced NADPH-diaphorase staining in CA1", "setting": "[3]; 24 hours postischemic", "value": "markedly reduced"},
      {"measurement": "Ischemia-induced NADPH-diaphorase staining in CA1", "setting": "[3]; 48 hours after ischemia", "value": "attenuation of the staining was persisted"},
      {"measurement": "CA1 neuronal density / protection of CA1 neurons (of non-ischemic control)", "setting": "[4]; 10 min 4-VO ischemia, 10 mg/kg i.p. at 0, 0.5, 2 h (immediately after reperfusion), measured one week later", "value": 45, "unit": "%"},
      {"measurement": "Protection of neurons in CA1 hippocampus", "setting": "[4]; 10 min 4-VO ischemia, NAMDA treatment versus saline, one week later, Fisher's PLSD p<0.0001", "value": "significantly protected neurons in CA1 hippocampus"},
      {"measurement": "Neuron density in CA1 at 24 hours postischemic", "setting": "[4]; 10 min ischemia, NAMDA-ischemic n=3, 24 hours postischemic", "value": "18.3±2.2", "unit": "neurons/10^5 μm^3"},
      {"measurement": "Protection of CA1 neurons with delayed administration", "setting": "[4]; administration delayed up to 2 hours after ischemia, one week later", "value": "protect CA1 neurons despite delaying the treatment up to 2 hours; also recorded: significant protection of CA1 neurons"},
      {"measurement": "Baseline NADPH-diaphorase staining intensity", "setting": "[5]; absence of LPS", "value": "not affected"},
      {"measurement": "LPS-induced NADPH-diaphorase activity (staining)", "setting": "[5]; presence of LPS", "value": "attenuated"},
      {"measurement": "Nitrite accumulation in cell supernatant", "setting": "[6]; absence of LPS", "value": "did not alter nitrite accumulation"},
      {"measurement": "Nitrite accumulation in cell supernatant", "setting": "[6]; presence of LPS 0.2 μg/ml, ANOVA p<0.001", "value": "significantly reduced nitrite accumulation in a dose-dependent manner"}
    ]},
    {"compound": "COc1ccc2[nH]cc(CCNC(C)=O)c2c1", "note": "[melatonin, Melatonin]", "values": [
      {"measurement": "Solubility in aqueous media", "setting": "[7]", "value": "insoluble in aqueous media"},
      {"measurement": "Protection of CA1 neurons", "setting": "[8]; administration starting immediately after / during reperfusion, 10 min transient forebrain ischemia", "value": "significantly protect CA1 neurons; also recorded: protects the CA1 hippocampal neurons"},
      {"measurement": "Protection of CA1 neurons with delayed administration", "setting": "[8]; delay of one hour", "value": "did not offer significant protection"},
      {"measurement": "Protection of the neurons with delayed administration", "setting": "[8]; delay of one to two hours in administration", "value": "significantly decreased protection of the neurons"}
    ]}
  ]
}
